These results are taken from patent US10869478B2, “Uses of 2-(2,4-dichlorophenyl)methyl-4,4-dimethyl-3-isoxazolidone as foliar herbicide” (Bayer CropScience Aktiengesellschaft, priority 2015, dated 2020).

Format in all cases: in vivo
The test system of series [1] is Galium aparine. Put plainly: Post-emergence field trial, herbicidal effect. To be noted: post emergence application GS23, field trial. Here is the method: (§1) The experiments were conducted as post applied field trials with plot sizes of 11.25-15 qm, an application volume of 250-300 liter water per hectare and two to three repetitions. Seeds of different crops and various monocot and dicot weeds were either sown or the monocot and dicot weeds were grown naturally and established under common field conditions. The evaluation 13-46 days after application was assessed visually. Treated plants were compared to untreated plants (0-100% scale). In the tables below, GS (growth stage) corresponds to BBCH-code (see for reference Lancashire, P. D.; H. Bleiholder; P. Langeluddecke; R. Stauss; T van den Boom; E. Weber; A. Witzen-Berger (1991). “A uniform decimal code for growth stages of crops and weeds”: Ann. Appl. Biol. 119 (3): 561-601; or Witzenberger, A.; H. Hack; T van den Boom (1989): “Erläuterungen zum BBCH-Dezimal-Code für die Entwicklungsstadien des Getreides—mit Abbildungen”. Gesunde pflanzen 41: 384-388; or Zadoks, J. C., Chang, T T & Konzak, C. F. (1974): A decimal code for the growth stages of cereals. Weed Research 14, 415421)
(§2) The generated values from applications alone and in combination were used to evaluate the combinatorial effects according to S. R. Colby, Weeds 15, pages 20 to 22 (1967).
(§3) The abbreviations have the following meaning: • a.i.=active ingredient • E=Observed combination effect value • EC=Calculated combination effect value according to Colby (EC=A+B−A×B/100) • Diff:=Difference (%) between observed and expected combination effect value (%) (observed minus expected value)

Series [2] concerns Papaver rhoeas. Description: Post-emergence field trial, herbicidal effect. To be noted: Table 8; post emergence application GS18, field trial; 50 g a.i./ha. Here is the method:
as §1, §2, §3

Series [3] concerns Centaurea cyanus. Description: Post-emergence field trial, herbicidal effect. The settings on record: post emergence application GS18, field trial. Here is the method:
as §1, §2, §3

Series [4] has as its system Hordeum vulgare. To be noted: Table 2; post emergence application GS29, field trial; 200 g a.i./ha; visual, 0-100% scale vs untreated. Here is the method:
as §1, §2, §3

Series [5] deals with Triticum aestivum. The settings on record: 200 g a.i./ha. Here is the method: as §1, §2, §3

For `CCCCCCCC(=O)Oc1c(Br)cc(C#N)cc1Br` [bromoxynil AS octanoate, reference compound], the “Efficacy [%] against Galium aparine” value in series [1] (Table 7, 175 g a.i./ha) is 10%.

For the compound `CSc1nnc(C(C)(C)C)c(=O)n1N` [metribuzin, reference compound], the “Efficacy [%] against Papaver rhoeas” value in series [2] is 0%.

For the compound `Nc1c([N+](=O)[O-])ccc(Oc2ccccc2)c1Cl` [aclonifen, reference compound], in series [3] (Table 9, 450 g a.i./ha), the “Efficacy [%] against Centaurea cyanus” value is listed as 0%.

Regarding `O=C(Nc1ccc(F)cc1F)c1cccnc1Oc1cccc(C(F)(F)F)c1` [diflufenican, reference compound], the “Efficacy [%] against Centaurea cyanus” value in series [3] (Table 6, 75 g a.i./ha) was 0%.

On to `Nc1c(Cl)c(F)nc(OCC(=O)O)c1Cl` [fluroxypyr, reference compound], for which the “Efficacy [%] against Centaurea cyanus” value in series [3] (Table 5, 150 g a.i./ha) is 30%.

For `CC1(C)CON(Cc2ccc(Cl)cc2Cl)C1=O` [COMPOUND I, 2-(2,4-dichlorophenyl)methyl-4,4-dimethyl-3-isoxazolidone], the “Efficacy/selectivity [%] against Hordeum vulgare” value in series [4] worked out at 32%. Moreover, the “Efficacy/selectivity [%] against Triticum aestivum” value in series [5] (Table 1, post emergence application GS30, field trial, visual, 0-100% scale vs untreated) was determined as 30%. Further, the “Efficacy/selectivty [%] against Triticum aestivum” value in series [5] (Table 3, post emergence application GS29, field trial) turned out to be 18%. In addition, the “Efficacy [%] against Galium aparine” value is reported as 25% in series [1] (Table 4, 100 g a.i./ha) and 0% in series [1] (Table 7, 100 g a.i./ha). The “Efficacy [%] against Papaver rhoeas” value in series [2] is 0%. Further, the “Efficacy [%] against Centaurea cyanus” value in series [3] (Table 5, 50 g a.i./ha) worked out at 25%; in series [3] (Table 6, 50 g a.i./ha), 25%; in series [3] (Table 9, 100 g a.i./ha), 75%.
